ChEMBL document CHEMBL5696441 (Nat Chem Biol, 2011)

Tests used:
[1] = biological target: Tyrosine-protein kinase ABL1 (Homo sapiens) (UniProt P00519); experiment: Inhibition of ABL1 (unknown origin) assessed as remaining activity at 1 uM by Kinome scan method relative to control
[2] = system: Tyrosine-protein kinase ABL1 (Homo sapiens), P00519 [T315I]; experiment: Inhibition of ABL1 T315I mutant (unknown origin) assessed as remaining activity at 1 uM by Kinome scan method relative to control
[3] = biological target: Mitogen-activated protein kinase kinase kinase 12 (Homo sapiens) (UniProt Q12852); experiment: Inhibition of DLK (unknown origin) assessed as remaining activity at 1 uM by Kinome scan method relative to control
[4] = biological target: T1, Myotonin-protein kinase (Homo sapiens) (UniProt Q09013); experiment: Inhibition of DMPK (unknown origin) assessed as remaining activity at 1 uM by Kinome scan method relative to control
T1 sequence (whole entry): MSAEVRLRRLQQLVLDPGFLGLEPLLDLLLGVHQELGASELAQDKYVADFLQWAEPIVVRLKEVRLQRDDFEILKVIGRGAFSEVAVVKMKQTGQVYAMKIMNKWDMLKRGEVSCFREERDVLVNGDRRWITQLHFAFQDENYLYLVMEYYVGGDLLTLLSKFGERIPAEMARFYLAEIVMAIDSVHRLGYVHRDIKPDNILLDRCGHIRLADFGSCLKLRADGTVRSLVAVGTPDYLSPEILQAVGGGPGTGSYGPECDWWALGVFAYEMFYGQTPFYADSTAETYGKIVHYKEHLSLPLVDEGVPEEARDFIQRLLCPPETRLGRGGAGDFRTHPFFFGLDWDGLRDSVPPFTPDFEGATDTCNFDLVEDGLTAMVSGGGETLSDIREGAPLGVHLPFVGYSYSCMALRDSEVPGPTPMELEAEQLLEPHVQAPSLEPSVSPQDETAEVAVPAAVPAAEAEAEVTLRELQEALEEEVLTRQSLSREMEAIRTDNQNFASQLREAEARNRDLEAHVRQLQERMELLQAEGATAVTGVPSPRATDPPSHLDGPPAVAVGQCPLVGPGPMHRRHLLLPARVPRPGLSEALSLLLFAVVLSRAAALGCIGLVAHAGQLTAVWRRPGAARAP

[5] = biological target: Mitogen-activated protein kinase 4 (Homo sapiens) (UniProt P31152); experiment: Inhibition of ERK4 (unknown origin) assessed as remaining activity at 1 uM by Kinome scan method relative to control
[6] = biological target: Fibroblast growth factor receptor 1 (Homo sapiens) (UniProt P11362); experiment: Inhibition of FGFR1 (unknown origin) assessed as remaining activity at 1 uM by Kinome scan method relative to control
[7] = biological target: Cyclin-G-associated kinase (Homo sapiens) (UniProt O14976); experiment: Inhibition of GAK (unknown origin) assessed as remaining activity at 1 uM by Kinome scan method relative to control
Chain of Cyclin-G-associated kinase (Homo sapiens) (O14976 whole entry): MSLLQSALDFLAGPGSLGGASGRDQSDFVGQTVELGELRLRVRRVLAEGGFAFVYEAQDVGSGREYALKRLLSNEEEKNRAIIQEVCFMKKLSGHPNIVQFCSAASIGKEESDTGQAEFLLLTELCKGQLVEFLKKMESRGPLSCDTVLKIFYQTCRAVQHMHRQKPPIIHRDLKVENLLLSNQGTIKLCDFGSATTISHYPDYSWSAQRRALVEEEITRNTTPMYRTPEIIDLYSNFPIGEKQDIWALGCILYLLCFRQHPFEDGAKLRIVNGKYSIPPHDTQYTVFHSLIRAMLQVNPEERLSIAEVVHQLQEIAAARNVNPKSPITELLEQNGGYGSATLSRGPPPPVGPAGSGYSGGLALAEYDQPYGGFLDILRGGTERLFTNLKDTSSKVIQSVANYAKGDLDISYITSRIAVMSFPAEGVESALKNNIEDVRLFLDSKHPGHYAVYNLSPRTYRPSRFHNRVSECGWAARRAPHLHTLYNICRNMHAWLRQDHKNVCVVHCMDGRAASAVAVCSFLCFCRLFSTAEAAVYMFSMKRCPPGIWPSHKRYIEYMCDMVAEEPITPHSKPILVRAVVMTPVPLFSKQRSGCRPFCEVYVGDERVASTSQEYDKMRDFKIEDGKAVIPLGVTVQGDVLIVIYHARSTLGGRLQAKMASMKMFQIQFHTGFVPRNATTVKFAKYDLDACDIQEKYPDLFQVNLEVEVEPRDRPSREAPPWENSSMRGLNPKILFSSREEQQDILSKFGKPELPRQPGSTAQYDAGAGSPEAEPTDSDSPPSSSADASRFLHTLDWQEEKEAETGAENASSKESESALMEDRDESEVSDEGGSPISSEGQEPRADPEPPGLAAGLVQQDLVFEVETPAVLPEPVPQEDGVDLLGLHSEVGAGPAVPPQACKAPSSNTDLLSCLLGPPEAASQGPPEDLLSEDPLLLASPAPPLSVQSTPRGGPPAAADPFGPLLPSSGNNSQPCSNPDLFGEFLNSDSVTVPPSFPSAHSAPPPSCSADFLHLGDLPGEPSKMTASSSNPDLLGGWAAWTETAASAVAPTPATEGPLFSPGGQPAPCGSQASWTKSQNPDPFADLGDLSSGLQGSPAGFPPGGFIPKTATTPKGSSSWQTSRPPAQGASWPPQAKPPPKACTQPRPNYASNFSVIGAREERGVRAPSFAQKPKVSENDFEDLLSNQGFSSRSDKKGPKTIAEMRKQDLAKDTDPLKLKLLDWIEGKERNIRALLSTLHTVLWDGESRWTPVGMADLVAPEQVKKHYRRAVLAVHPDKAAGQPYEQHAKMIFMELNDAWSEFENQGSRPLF

[8] = biological target: Serine/threonine-protein kinase STK11 (Homo sapiens) (UniProt Q15831); experiment: Inhibition of LKB1 (unknown origin) assessed as remaining activity at 1 uM by Kinome scan method relative to control
Chain of Serine/threonine-protein kinase STK11 (Homo sapiens) (Q15831 whole entry): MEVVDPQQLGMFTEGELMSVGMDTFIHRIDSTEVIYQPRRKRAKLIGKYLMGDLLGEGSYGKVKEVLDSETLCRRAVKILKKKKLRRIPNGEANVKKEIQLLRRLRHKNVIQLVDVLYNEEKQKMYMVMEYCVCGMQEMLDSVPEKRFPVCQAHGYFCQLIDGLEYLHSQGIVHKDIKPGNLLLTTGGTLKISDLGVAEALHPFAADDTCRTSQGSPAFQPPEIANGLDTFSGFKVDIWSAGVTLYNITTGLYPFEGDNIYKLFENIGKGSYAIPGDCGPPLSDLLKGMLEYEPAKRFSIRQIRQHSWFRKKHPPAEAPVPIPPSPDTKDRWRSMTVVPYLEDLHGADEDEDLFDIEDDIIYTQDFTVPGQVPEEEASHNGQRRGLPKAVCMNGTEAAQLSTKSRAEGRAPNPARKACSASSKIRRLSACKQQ

[9] = biological target: MAP kinase-interacting serine/threonine-protein kinase 2 (Homo sapiens) (UniProt Q9HBH9); experiment: Inhibition of MKNK2 (unknown origin) assessed as remaining activity at 1 uM by Kinome scan method relative to control
[10] = biological target: Macrophage-stimulating protein receptor (Homo sapiens) (UniProt Q04912); experiment: Inhibition of MST1R (unknown origin) assessed as remaining activity at 1 uM by Kinome scan method relative to control
Chain of Macrophage-stimulating protein receptor (Homo sapiens) (Q04912 25-304 limits assumed): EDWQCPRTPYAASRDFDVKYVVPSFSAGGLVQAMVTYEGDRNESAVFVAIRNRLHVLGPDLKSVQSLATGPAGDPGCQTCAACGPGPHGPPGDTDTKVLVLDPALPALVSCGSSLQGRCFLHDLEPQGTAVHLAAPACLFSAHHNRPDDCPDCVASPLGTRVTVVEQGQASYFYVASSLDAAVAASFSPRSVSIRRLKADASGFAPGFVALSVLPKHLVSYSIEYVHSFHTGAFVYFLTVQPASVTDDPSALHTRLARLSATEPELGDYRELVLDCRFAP
Chain of Macrophage-stimulating protein receptor (Homo sapiens) (Q04912 310-1400 limits assumed): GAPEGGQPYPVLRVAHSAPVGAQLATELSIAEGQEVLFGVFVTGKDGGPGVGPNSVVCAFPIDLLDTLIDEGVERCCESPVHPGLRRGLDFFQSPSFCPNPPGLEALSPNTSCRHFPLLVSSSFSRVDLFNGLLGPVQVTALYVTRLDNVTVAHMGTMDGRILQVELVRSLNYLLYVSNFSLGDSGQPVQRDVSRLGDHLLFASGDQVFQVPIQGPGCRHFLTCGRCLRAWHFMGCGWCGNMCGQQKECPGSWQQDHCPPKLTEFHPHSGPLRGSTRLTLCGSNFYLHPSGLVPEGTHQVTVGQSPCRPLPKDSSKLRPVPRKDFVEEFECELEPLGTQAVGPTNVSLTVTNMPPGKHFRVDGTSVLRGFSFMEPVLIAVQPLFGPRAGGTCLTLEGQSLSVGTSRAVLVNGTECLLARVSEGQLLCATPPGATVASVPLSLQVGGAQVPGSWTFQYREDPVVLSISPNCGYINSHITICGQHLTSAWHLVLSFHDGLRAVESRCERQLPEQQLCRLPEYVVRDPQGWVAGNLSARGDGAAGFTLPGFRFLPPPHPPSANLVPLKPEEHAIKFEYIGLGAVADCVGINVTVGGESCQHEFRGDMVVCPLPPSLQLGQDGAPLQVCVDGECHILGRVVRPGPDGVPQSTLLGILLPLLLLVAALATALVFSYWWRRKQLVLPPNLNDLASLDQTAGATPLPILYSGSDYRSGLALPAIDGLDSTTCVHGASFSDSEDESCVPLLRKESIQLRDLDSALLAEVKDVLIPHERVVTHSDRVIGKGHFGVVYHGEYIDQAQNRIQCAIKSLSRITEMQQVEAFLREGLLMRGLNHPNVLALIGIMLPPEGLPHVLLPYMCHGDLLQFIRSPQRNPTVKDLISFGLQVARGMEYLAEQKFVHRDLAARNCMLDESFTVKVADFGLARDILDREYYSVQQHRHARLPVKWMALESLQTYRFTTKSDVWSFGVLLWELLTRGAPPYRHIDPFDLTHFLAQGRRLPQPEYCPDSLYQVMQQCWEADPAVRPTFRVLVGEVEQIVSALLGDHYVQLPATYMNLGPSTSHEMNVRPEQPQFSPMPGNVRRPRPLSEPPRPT

[11] = biological target: Serine/threonine-protein kinase 38 (Homo sapiens) (UniProt Q15208); experiment: Inhibition of NDR1 (unknown origin) assessed as remaining activity at 1 uM by Kinome scan method relative to control
[12] = biological target: Cyclin-dependent kinase 14 (Homo sapiens) (UniProt O94921); experiment: Inhibition of PFTK1 (unknown origin) assessed as remaining activity at 1 uM by Kinome scan method relative to control
Chain of Cyclin-dependent kinase 14 (Homo sapiens) (O94921 whole entry): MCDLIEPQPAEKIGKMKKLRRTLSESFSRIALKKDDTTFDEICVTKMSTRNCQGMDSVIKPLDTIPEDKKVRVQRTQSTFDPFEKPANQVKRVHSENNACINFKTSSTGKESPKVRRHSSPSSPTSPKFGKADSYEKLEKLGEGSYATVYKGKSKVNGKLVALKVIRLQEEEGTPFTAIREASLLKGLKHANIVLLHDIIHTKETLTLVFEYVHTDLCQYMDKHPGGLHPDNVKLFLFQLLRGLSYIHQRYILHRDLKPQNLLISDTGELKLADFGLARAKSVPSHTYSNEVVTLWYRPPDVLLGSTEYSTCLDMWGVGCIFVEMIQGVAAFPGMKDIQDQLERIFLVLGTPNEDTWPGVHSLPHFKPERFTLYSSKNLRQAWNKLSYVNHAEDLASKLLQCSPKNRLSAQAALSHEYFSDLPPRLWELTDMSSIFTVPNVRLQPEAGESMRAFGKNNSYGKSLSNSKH

[13] = biological target: T2, Serine/threonine-protein kinase D3 (Homo sapiens) (UniProt O94806); experiment: Inhibition of PRKD3 (unknown origin) assessed as remaining activity at 1 uM by Kinome scan method relative to control
T2 sequence (whole entry): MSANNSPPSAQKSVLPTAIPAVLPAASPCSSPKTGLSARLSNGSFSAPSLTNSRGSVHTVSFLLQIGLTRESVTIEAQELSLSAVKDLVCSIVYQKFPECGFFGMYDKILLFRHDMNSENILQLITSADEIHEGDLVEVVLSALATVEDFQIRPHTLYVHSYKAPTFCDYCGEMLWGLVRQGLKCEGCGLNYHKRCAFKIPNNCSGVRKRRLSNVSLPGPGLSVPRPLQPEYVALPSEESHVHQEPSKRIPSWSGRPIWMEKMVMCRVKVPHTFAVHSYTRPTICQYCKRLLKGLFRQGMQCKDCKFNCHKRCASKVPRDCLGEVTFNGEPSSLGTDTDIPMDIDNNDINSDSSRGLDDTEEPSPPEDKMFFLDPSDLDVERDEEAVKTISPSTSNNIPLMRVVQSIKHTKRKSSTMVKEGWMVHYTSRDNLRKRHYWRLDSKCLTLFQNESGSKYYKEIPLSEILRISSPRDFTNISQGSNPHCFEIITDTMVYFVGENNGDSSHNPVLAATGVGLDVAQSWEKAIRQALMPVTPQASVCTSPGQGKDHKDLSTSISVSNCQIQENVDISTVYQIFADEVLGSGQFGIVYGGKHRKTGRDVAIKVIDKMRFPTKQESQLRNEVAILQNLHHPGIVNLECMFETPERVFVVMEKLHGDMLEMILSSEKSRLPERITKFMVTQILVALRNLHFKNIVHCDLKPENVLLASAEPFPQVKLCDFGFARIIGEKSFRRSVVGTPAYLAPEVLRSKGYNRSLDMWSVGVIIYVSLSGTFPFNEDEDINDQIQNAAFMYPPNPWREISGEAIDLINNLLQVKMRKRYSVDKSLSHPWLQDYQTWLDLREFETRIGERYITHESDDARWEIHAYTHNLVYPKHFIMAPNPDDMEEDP

[14] = biological target: Serine/threonine-protein kinase RIO2 (Homo sapiens) (UniProt Q9BVS4); experiment: Inhibition of RIOK2 (unknown origin) assessed as remaining activity at 1 uM by Kinome scan method relative to control
Chain of Serine/threonine-protein kinase RIO2 (Homo sapiens) (Q9BVS4 whole entry, looked up, the tested form may be a part): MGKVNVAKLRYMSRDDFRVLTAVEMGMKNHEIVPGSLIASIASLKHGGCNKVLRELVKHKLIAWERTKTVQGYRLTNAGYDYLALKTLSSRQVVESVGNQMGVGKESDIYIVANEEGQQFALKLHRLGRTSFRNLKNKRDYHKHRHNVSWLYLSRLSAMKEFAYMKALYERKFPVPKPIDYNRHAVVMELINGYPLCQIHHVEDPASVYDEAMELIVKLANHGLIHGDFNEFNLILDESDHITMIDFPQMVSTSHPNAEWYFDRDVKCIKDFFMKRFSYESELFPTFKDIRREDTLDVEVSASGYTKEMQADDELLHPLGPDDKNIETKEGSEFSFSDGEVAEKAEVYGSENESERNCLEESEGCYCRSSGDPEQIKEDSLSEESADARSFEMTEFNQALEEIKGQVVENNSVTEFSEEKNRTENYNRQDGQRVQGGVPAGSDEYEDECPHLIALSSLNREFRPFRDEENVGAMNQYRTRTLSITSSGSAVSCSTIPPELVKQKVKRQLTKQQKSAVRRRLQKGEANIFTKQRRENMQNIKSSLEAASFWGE

[15] = biological target: Ribosomal protein S6 kinase alpha-4 (Homo sapiens) (UniProt O75676); experiment: Inhibition of N-terminal kinase domain RPS6KA4 (unknown origin) assessed as remaining activity at 1 uM by Kinome scan method relative to control
[16] = biological target: Serine/threonine-protein kinase 35 (Homo sapiens) (UniProt Q8TDR2); experiment: Inhibition of STK35 (unknown origin) assessed as remaining activity at 1 uM by Kinome scan method relative to control
[17] = biological target: BDNF/NT-3 growth factors receptor (Homo sapiens) (UniProt Q16620); experiment: Inhibition of TRKB (unknown origin) assessed as remaining activity at 1 uM by Kinome scan method relative to control
Chain of BDNF/NT-3 growth factors receptor (Homo sapiens) (Q16620 32-822 limits assumed): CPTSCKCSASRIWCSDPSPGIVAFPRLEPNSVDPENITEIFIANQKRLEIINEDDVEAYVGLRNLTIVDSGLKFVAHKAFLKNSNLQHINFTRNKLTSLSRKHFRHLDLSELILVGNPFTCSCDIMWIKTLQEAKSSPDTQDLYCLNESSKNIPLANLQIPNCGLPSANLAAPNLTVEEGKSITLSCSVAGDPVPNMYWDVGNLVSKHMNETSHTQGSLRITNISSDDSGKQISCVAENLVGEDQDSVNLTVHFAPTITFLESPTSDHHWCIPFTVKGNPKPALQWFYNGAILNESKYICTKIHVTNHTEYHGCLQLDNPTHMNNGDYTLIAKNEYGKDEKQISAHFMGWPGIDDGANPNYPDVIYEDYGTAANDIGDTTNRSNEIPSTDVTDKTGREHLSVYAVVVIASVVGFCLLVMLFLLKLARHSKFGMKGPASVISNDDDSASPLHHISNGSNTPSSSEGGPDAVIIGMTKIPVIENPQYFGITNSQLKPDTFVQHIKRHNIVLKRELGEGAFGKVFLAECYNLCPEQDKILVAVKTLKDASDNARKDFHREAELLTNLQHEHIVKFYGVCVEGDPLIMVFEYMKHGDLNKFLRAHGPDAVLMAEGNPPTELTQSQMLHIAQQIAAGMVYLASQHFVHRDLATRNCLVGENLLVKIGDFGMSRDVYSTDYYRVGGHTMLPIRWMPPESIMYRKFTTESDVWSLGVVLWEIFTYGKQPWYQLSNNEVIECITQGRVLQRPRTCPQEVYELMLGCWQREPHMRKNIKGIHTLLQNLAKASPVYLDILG

[18] = biological target: Non-receptor tyrosine-protein kinase TYK2 (Homo sapiens) (UniProt P29597); experiment: Inhibition of TYK2 JH1 domain (unknown origin) assessed as remaining activity at 1 uM by Kinome scan method relative to control

In the case of `Nc1ccccc1Nc1ccc2c(c1)CCc1ccccc1C2=O`, the Activity [1] is reported as 84%, the Activity [2] is reported as 83% and the Activity [3] is reported as 98%. The Activity [4] was 93%, the Activity [5] was 97% and the Activity [6] was 94%. It also gave an Activity [7] of 93%, an Activity [8] of 98% and an Activity [9] of 88%. It also gave an Activity [10] of 97%, an Activity [11] of 81% and an Activity [12] of 94%. For the same compound, the Activity [13] was 77%, the Activity [14] was 85% and the Activity [15] was 94%. It also gave an Activity [16] of 80%, an Activity [17] of 85% and an Activity [18] of 83%.
`O=C1c2ccc(Nc3ccc(F)cc3F)cc2CCc2ccc(OC[C@H](O)CO)cc21` [Skepinone-L] showed an Activity [1] of 94%, an Activity [2] of 94% and an Activity [3] of 94%. For the same compound, the Activity [4] was 76%, the Activity [5] was 100% and the Activity [6] was 90%. It also gave an Activity [7] of 53%, an Activity [8] of 100% and an Activity [9] of 72%. It also gave an Activity [10] of 79%, an Activity [11] of 87% and an Activity [12] of 86%. It also gave an Activity [13] of 91%, an Activity [14] of 81% and an Activity [15] of 82%. For the same compound, the Activity [16] was 95%, the Activity [17] was 100% and the Activity [18] was 58%.
